Results as given in patent publication US8309769B2, “Crystalline forms of 2-[2-chloro-4-methylsulfony1-3-(2,2,2-trifluoroethoxymethyl)benzoyl]cyclohexan-1,3-dione” (BASF SE, priority 2007, dated 2012).

Format: physicochemical
Method: The form in question or mixtures of different forms of tembotrione were suspended in a mixture of methanol with water (volume ratio methanol:water 1:9) at temperatures in the range from 10 to 30° C., and the temperature varied cyclically at a rate of 0.33 K min^−1.

Q: For `CS(=O)(=O)c1ccc(C(=O)C2C(=O)CCCC2=O)c(Cl)c1COCC(F)(F)F` [form A, 2-[2-chloro-4-methylsulfonyl-3-(2,2,2-trifluoro-ethoxymethyl)benzoyl]cyclohexan-1,3-dione], which “stability against phase change: modification found after 8 days” value is on record?
A: unchanged

Q: With `CS(=O)(=O)c1ccc(C(=O)C2C(=O)CCCC2=O)c(Cl)c1COCC(F)(F)F` [form B, 2-[2-chloro-4-methylsulfonyl-3-(2,2,2-trifluoro-ethoxymethyl)benzoyl]cyclohexan-1,3-dione] as the molecule, how does the “stability against phase change: modification found after 3 days” value read?
A: converted completely into modification C

Q: For `CS(=O)(=O)c1ccc(C(=O)C2C(=O)CCCC2=O)c(Cl)c1COCC(F)(F)F` [mixture of forms A, B and C, 2-[2-chloro-4-methylsulfonyl-3-(2,2,2-trifluoro-ethoxymethyl)benzoyl]cyclohexan-1,3-dione], which “stability against phase change: modification found after 2 days” value is on record?
A: converted into form A
